Source: ChEMBL document CHEMBL5236660, “Design, synthesis, and biological evaluation of quinoxalinone derivatives as potent BRD4 inhibitors” (Bioorg Med Chem, 2023)
The source made the active and inactive calls. The calls are words filed in the database; no cut-off is given here.

Assays:
HT-29 = assay: Antiproliferative activity against human HT-29 cells assessed as reduction in cell viability incubated for 72 hrs by MTT assay; format: functional, cell-based; conditions: HT-29, 72 h
MCF7 = assay: Antiproliferative activity against human MCF7 cells assessed as reduction in cell viability incubated for 72 hrs by MTT assay; format: functional, cell-based; conditions: MCF7, 72 h
[1] = target: Bromodomain-containing protein 4 (Homo sapiens, UniProt O60885); assay: Inhibition of BRD4 BD1 (unknown origin) by TR-FRET assay
[2] = Cytotoxicity against human GES1 cells assessed as reduction in cell viability incubated for 72 hrs by MTT assay; format: toxicity, cell-based
HepG2 [3] = assay: Antiproliferative activity against human HepG2 cells assessed as reduction in cell viability incubated for 72 hrs by MTT assay; format: functional, cell-based; conditions: HepG2, 72 h
HepG2 [4] = assay: Induction of apoptosis in human HepG2 cells assessed as necrotic cells at 5 uM incubated for 24 hrs by Annexin-V/PI staining based flow cytometry (Rvb=0.85%); format: functional
HepG2 [5] = assay: Induction of apoptosis in human HepG2 cells assessed as early apoptotic cells at 5 uM incubated for 24 hrs by Annexin-V/PI staining based flow cytometry (Rvb=4.48%); format: functional
HepG2 [6] = assay: Induction of cell cycle arrest in human HepG2 cells assessed as accumulation at G2/M phase at 5 uM incubated for 24 hrs by flow cytometry (Rvb= 14.05%); format: functional
HepG2 [7] = assay: Induction of apoptosis in human HepG2 cells assessed as increase in cleaved caspase-3 level at 2.5 uM incubated for 24 hrs by Western blot analysis; format: functional, cell-based
HepG2 [8] = assay: Induction of cell cycle arrest in human HepG2 cells assessed as accumulation at S phase at 5 uM incubated for 24 hrs by flow cytometry (Rvb= 20.1%); format: functional
HepG2 [9] = assay: Induction of apoptosis in human HepG2 cells assessed as total apoptotic cells at 5 uM incubated for 24 hrs by Annexin-V/PI staining based flow cytometry (Rvb=5.14%); format: functional
HepG2 [10] = assay: Inhibition of c-myc expression in human HepG2 cells at 5 uM incubated for 24 hrs by Western blot analysis; format: functional, cell-based
HepG2 [11] = assay: Induction of apoptosis in human HepG2 cells assessed as late apoptotic cells at 5 uM incubated for 24 hrs by Annexin-V/PI staining based flow cytometry (Rvb=0.66%); format: functional
HepG2 [12] = assay: Induction of cell cycle arrest in human HepG2 cells assessed as accumulation at G0/G1 phase at 5 uM incubated for 24 hrs by flow cytometry (Rvb= 46.5%); format: functional
HepG2 [13] = assay: Induction of apoptosis in human HepG2 cells assessed as increase in p21 level at 2.5 uM incubated for 24 hrs by Western blot analysis; format: functional, cell-based
HepG2 [14] = assay: Induction of apoptosis in human HepG2 cells assessed as viable cells at 5 uM incubated for 24 hrs by Annexin-V/PI staining based flow cytometry (Rvb=94.0%); format: functional; conditions: read-out: Activity

Row | SMILES | IC50 (HT-29) [µM] | IC50 (MCF7) [µM] | IC50 [1] [nM] | IC50 at 72 h [2] [µM] | IC50 (HepG2 [3]) [µM] | further results
1 | Cc1nc2cc(-c3cc(NS(C)(=O)=O)ccc3Oc3ccc(F)cc3)ccc2[nH]c1=O | 6.4 | 3.81 | 103 | 36.5 | 11.3 | 
2 | CCS(=O)(=O)Nc1ccc(Oc2ccc(F)cc2F)c(-c2cn(C)c(=O)c3[nH]ccc23)c1 [MIVEBRESIB] | 1.84 | 12.3 | 0.7 | 4.31 | 4.29 | Activity (HepG2 [4]): 1.63%; Activity (HepG2 [5]): 32%; Activity (HepG2 [6]): 19.6%; Activity (HepG2 [7]): Active; Activity (HepG2 [8]): 13.1%; Activity (HepG2 [9]): 34.81%; inhibition (HepG2 [10]): Active; Activity (HepG2 [11]): 2.81%; Activity (HepG2 [12]): 56.2%; Activity (HepG2 [13]): Active; viability at 5 µM (HepG2 [14]): 63.6%
3 | Cc1nc2cc(-c3cc(C(=O)N4CCOCC4)ccc3Oc3ccc(F)cc3F)ccc2[nH]c1=O |  |  | 1480 |  |  | 
4 | CCS(=O)(=O)Cc1ccc(Oc2ccc(F)cc2F)c(-c2ccc3[nH]c(=O)c(C)nc3c2)c1 | 25.1 | > 50 | 777 | 45.8 | > 50 | 
5 | COC(=O)c1ccc(Oc2ccc(F)cc2F)c(-c2ccc3[nH]c(=O)c(C)nc3c2)c1 |  |  | 4220 |  |  | 
6 | Cc1nc2cc(-c3cc(C=O)ccc3Oc3ccc(F)cc3F)ccc2[nH]c1=O |  |  | 2510 |  |  | 
7 | Cc1nc2cc(-c3cc(S(C)(=O)=O)ccc3Oc3ccc(F)cc3F)ccc2[nH]c1=O |  |  | 3970 |  |  | 
8 | Cc1nc2cc(-c3cc(NS(C)(=O)=O)ccc3Oc3ccc(F)cc3Cl)ccc2[nH]c1=O |  |  | 1560 |  |  | 
9 | Cc1nc2cc(-c3cc(CS(C)(=O)=O)ccc3Oc3ccc(F)cc3F)ccc2[nH]c1=O | 17.6 | > 50 | 753 | 36.1 | 22.9 | 
10 | Cc1nc2cc(-c3cc(NS(C)(=O)=O)ccc3Oc3ccccc3C(F)(F)F)ccc2[nH]c1=O |  |  | 2650 |  |  | 
11 | COc1cc(Cl)ccc1Oc1ccc(NS(C)(=O)=O)cc1-c1ccc2[nH]c(=O)c(C)nc2c1 |  |  | 2330 |  |  | 
12 | Cc1nc2cc(-c3cc(C(=O)NCCO)ccc3Oc3ccc(F)cc3F)ccc2[nH]c1=O | 15.1 | > 50 | 621 | > 100 | 17.9 | 
13 | CCc1nc2cc(-c3cc(NS(C)(=O)=O)ccc3Oc3ccc(F)cc3F)ccc2[nH]c1=O | 16.5 | 1.93 |  | 29.8 | 14.8 | 
14 | Cc1nc2cc(-c3cc(NS(C)(=O)=O)ccc3Oc3ccc(Cl)cc3)ccc2[nH]c1=O | 8.09 | 4.64 | 341 | 18.1 | 11.3 | 
15 | Cc1nc2cc(-c3cc(C(C)O)ccc3Oc3ccc(F)cc3F)ccc2[nH]c1=O (stereo not given) | 20.2 | 34.5 | 406 | 30.8 | 33.5 | 
16 | Cc1nc2cc(-c3cc(NS(C)(=O)=O)ccc3Oc3ccc(F)cc3F)ccc2[nH]c1=O | 6.86 | 7.44 |  | 33.5 | 16.1 | 
17 | COc1ccccc1Oc1ccc(NS(C)(=O)=O)cc1-c1ccc2[nH]c(=O)c(C)nc2c1 |  |  | 2830 |  |  | 
18 | Cc1ccccc1Oc1ccc(NS(C)(=O)=O)cc1-c1ccc2[nH]c(=O)c(C)nc2c1 |  |  | 2120 |  |  | 
19 | Cc1nc2cc(-c3cc(C(C)(C)O)ccc3Oc3ccc(F)cc3F)ccc2[nH]c1=O |  |  | 1130 |  |  | 
20 | CCS(=O)(=O)Nc1ccc(Oc2ccc(F)cc2F)c(-c2ccc3[nH]c(=O)c(C)nc3c2)c1 | 16.8 | 9.78 | 48.3 | 20.2 | 5.41 | 
21 | Cc1nc2cc(-c3cc(C(=O)N4CCN(C)CC4)ccc3Oc3ccc(F)cc3F)ccc2[nH]c1=O |  |  | 1310 |  |  | 
